Measurements: ChEMBL document CHEMBL3259781 (J Med Chem, 2014)
≈ marks a conversion by molar mass, not a printed value. Values belong to the molecule of their own block, whether it stands above or below them.

Legend:
Homo sapiens = organism: Homo sapiens; experiment: Selectivity ratio of Ki for human recombinant adenosine A1 receptor to Ki for human recombinant adenosine receptor A2a
Adenosine receptor A1 [1] = target: T1, Adenosine receptor A1 (Homo sapiens, UniProt P30542)
T1 sequence (P30542 whole entry): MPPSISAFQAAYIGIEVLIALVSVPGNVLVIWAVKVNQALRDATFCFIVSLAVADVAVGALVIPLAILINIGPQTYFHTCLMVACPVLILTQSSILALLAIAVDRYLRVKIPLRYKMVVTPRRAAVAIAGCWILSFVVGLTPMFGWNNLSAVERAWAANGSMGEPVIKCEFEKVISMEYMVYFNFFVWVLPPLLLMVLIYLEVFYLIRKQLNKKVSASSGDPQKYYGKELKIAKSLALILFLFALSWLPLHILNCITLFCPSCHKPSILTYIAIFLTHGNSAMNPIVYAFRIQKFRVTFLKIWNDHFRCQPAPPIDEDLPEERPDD

Adenosine receptor A2b [2] = target: T2, Adenosine receptor A2b (Homo sapiens, UniProt P29275)
T2 sequence (P29275 whole entry): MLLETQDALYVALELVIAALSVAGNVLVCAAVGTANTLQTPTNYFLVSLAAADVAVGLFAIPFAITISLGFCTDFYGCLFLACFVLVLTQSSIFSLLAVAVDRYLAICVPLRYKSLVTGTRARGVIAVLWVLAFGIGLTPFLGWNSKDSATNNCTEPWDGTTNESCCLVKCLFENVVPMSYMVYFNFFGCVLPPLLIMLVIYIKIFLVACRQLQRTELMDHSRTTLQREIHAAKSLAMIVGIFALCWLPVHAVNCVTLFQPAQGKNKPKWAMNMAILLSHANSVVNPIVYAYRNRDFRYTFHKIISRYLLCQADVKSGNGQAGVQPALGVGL

Adenosine receptor A1 [3] = target: T1, Adenosine receptor A1; remark: listed apart in the source
Rattus norvegicus [4] = experiment: Anticataleptic activity in rat assessed as inhibition at 3 mg/kg, po after 1 hr; assay type: functional
Rattus norvegicus [5] = experiment: Anticataleptic activity in rat assessed as inhibition at 1 mg/kg, po after 1 hr; assay type: functional; conditions: Rattus norvegicus, po, 1 h
[6] = Plasma clearance in rat; assay type: ADME, organism-based
[7] = Solubility of the compound in water pH 7.4; assay type: physicochemical
[8] = Half life in rat; assay type: ADME, organism-based; conditions: in vivo
Rattus norvegicus [9] = experiment: Anticataleptic activity in rat assessed as inhibition at 3 mg/kg, po after 4 hrs; assay type: functional
Adenosine receptor A2a [10] = target: Adenosine receptor A2a (Homo sapiens, UniProt P29274)
Adenosine receptor A3 [11] = target: T3, Adenosine receptor A3 (Homo sapiens, UniProt P0DMS8); experiment: Binding affinity to human recombinant adenosine A3 receptor
T3 sequence (P0DMS8 whole entry): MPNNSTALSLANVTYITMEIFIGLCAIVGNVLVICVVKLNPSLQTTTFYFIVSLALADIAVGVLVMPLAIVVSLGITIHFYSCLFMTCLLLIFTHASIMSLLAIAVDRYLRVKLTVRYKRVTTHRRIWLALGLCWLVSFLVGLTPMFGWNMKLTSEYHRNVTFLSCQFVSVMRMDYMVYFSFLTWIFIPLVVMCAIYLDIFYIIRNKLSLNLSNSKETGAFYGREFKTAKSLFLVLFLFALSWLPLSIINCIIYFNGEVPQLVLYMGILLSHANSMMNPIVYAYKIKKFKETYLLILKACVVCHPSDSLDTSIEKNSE

Rattus norvegicus [12] = experiment: Induction of hypolocomotion in po dosed rat assessed as reduction in motor deficts; assay type: functional
Adenosine receptor A2b [13] = target: T2, Adenosine receptor A2b; remark: listed apart in the source
Mus musculus [14] = experiment: Anticataleptic activity in mouse assessed as inhibition of CGS21680-induced catalepsy at 10 mg/kg, po; assay type: functional
[15] = Oral bioavailability in rat; assay type: ADME, organism-based; conditions: in vivo
Adenosine receptor A2a [16] = target: Adenosine receptor A2a (Rattus norvegicus, UniProt P30543)
Rattus norvegicus [17] = organism: Rattus norvegicus; experiment: Anticataleptic activity in rat assessed as minimum efficacious dose; assay type: functional; conditions: read-out: MED
[18] = AUC in rat at 3 mg/kg, po; assay type: ADME, organism-based; parameters: dose 3 mg/kg, route oral; conditions: plasma
Mus musculus [19] = experiment: Anticataleptic activity in po dosed mouse assessed as inhibition of haloperidol-induced catalepsy; assay type: functional
Adenosine receptor A3 [20] = target: T3, Adenosine receptor A3
Rattus norvegicus [21] = experiment: Anticataleptic activity in po dosed rat assessed as inhibition of haloperidol-induced catalepsy; assay type: functional
Rattus norvegicus [22] = experiment: Anticataleptic activity in rat assessed as inhibition at 1 mg/kg, po after 4 hrs; assay type: functional; conditions: Rattus norvegicus, po, 4 h

Chain of Adenosine receptor A2a (Homo sapiens, UniProt P29274) (P29274 whole entry): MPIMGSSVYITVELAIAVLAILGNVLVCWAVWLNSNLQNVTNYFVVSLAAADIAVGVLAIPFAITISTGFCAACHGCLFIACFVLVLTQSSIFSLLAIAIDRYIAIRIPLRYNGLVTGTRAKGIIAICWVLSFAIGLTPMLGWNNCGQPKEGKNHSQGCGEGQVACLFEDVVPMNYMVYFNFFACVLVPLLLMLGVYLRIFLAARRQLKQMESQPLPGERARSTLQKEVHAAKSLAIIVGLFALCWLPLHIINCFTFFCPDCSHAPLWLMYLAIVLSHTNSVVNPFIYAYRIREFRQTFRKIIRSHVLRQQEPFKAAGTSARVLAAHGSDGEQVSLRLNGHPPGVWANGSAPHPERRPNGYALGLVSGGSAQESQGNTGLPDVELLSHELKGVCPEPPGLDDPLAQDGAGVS
Chain of Adenosine receptor A2a (Rattus norvegicus, UniProt P30543) (P30543 whole entry): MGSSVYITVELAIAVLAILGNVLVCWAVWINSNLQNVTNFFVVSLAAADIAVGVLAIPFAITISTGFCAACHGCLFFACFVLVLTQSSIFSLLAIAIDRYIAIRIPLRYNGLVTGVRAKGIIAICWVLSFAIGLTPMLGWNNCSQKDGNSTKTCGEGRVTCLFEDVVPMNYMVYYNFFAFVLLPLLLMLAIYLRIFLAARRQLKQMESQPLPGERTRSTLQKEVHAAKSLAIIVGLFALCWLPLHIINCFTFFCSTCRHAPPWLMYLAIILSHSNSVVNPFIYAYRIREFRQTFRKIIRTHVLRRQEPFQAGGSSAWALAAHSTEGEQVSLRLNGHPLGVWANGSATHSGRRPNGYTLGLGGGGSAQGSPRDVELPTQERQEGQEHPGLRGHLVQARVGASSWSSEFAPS

- Ratio Ki (Homo sapiens): 269
- Ki (Adenosine receptor A1 [1]): 1400 nM
Compound: CN(C)CCn1ncc2c1nc(N)n1c(=O)n(Cc3cccc(Cl)c3)nc21

- EC50 (Adenosine receptor A2b [2]): 10000 nM
- Ki (Adenosine receptor A1 [3]): 10000 nM
Compound: Nc1nc(OCCc2ccc(Cl)cc2)nc2c1ncn2[C@@H]1O[C@H](CO)[C@@H](O)[C@H]1O [SONEDENOSON]

- clearance [6]: 4.7 mL/min/kg
- solubility [7]: 100 µM (≈ 41.5 µg/mL)
- half-life [8]: 11.3 h
- Ki (Adenosine receptor A1 [1]): 358 nM
Compound: Cc1cnc2c(c1)CN(CCn1ncc3c1nc(N)n1nc(-c4ccco4)nc31)CC2
- inhibition in vivo at 3 mg/kg (Rattus norvegicus [4]): 80%
- inhibition in vivo at 1 mg/kg (Rattus norvegicus [5]): 65%

Compound: Cn1c(=O)c2c(ncn2C)n(C)c1=O [CAFFEINE]
- inhibition in vivo at 3 mg/kg (Rattus norvegicus [4]): 35%
- inhibition in vivo at 3 mg/kg (Rattus norvegicus [9]): 14%

- Ratio Ki (Homo sapiens): 351
- Ki (Adenosine receptor A2a [10]): 25 nM
- Ki (Adenosine receptor A1 [1]): 8780 nM
Compound: COc1ccc(C2CCOCC2)c2oc(NC(=O)c3ccnc(N4CCOCC4)c3)nc12

- Ki (Adenosine receptor A3 [11]): 45 nM
- Ki (Adenosine receptor A1 [3]): 77 nM
Compound: CCNC(=O)[C@H]1O[C@@H](n2cnc3c(N)nc(C#CC[C@H]4CC[C@H](C(=O)OC)CC4)nc32)[C@H](O)[C@@H]1O [APADENOSON]

- Ratio Ki (Homo sapiens): 17
- Ki (Adenosine receptor A1 [1]): 10.2 nM
Compound: CC(=O)Nc1cc(-n2cccn2)nc(-c2ccco2)n1

- Ratio Ki (Homo sapiens): 222
Compound: Cc1cc(C)n(-c2cc(NC(=O)CN3CCN(C)CC3)nc(-c3nccs3)n2)n1

Compound: CCNC(=O)[C@H]1O[C@@H](n2cnc3c(N)nc(NCCc4ccc(CCC(=O)NCCN)cc4)nc32)[C@H](O)[C@@H]1O
- ID90 (Rattus norvegicus [12]): 3.4 mg/kg
- ED50 (Rattus norvegicus [12]; Rattus norvegicus, po, read-out: ID50 (the source's name)): 0.5 mg/kg

- Ki (Adenosine receptor A2b [13]): 7070 nM
Compound: O[C@H](c1cc(C(F)(F)F)nc2c(C(F)(F)F)cccc12)[C@@H]1CCCCN1 [(R,S)-MEFLOQUINE]

Compound: COc1ccc(N2CCOCC2)c2cc(C(=O)Nc3ccncc3)oc12
- inhibition in vivo at 10 mg/kg (Mus musculus [14]): 76%

- Ratio Ki (Homo sapiens): 148
- bioavailability [15]: 5.8%
Compound: CC(C)c1nc(-c2nccs2)c2sccc2n1

Compound: Nc1nc2ccc(Cl)cc2c2nc(-c3ccco3)nn12 [CGS-15943]
- Ki (Adenosine receptor A2a [16]): 0.4 nM

Compound: Cc1cc(Cn2nnc3c(-c4ccco4)nc(N)nc32)ccc1N [VIPADENANT]
- minimal effective dose (Rattus norvegicus [17]): 0.1 mg/kg

Compound: Nc1nnc(-c2ccccc2)c(-c2ccccc2)n1
- Ki (Adenosine receptor A1 [1]): 270 nM

- Ratio Ki (Homo sapiens): 169
- AUC [18]: 1400 ng·h/mL
- Ki (Adenosine receptor A1 [1]): 406 nM
Compound: Cc1ccc2cc(CCn3ncc4c3nc(N)n3nc(-c5ccco5)nc43)ccc2n1
- inhibition in vivo at 3 mg/kg (Rattus norvegicus [4]): 86%
- inhibition in vivo at 3 mg/kg (Rattus norvegicus [9]): 38%

Compound: Nc1nc(-c2ccco2)c2c(n1)-c1ccccc1C2=O
- ED50 (Mus musculus [19]): 5 mg/kg

- Ki (Adenosine receptor A2b [13]): 141 nM
- Ki (Adenosine receptor A2a [10]): 1.7 nM
- Ki (Adenosine receptor A3 [20]): 1930 nM
Compound: Nc1nc(-c2ccco2)c2ncn(C(=O)NCc3ccco3)c2n1

- Ratio Ki (Homo sapiens): 420
- Ki (Adenosine receptor A2a [10]): 5 nM
- Ki (Adenosine receptor A1 [1]): 2100 nM
Compound: COc1cnc(N2CCOCC2)c2sc(NC(=O)c3ccc(F)cc3)nc12

- Ki (Adenosine receptor A2b [13]): 112 nM
- Ki (Adenosine receptor A3 [20]): 1470 nM
Compound: Nc1nc(-c2ccco2)c2ncn(C(=O)NCc3ccccc3)c2n1

- Ki (Adenosine receptor A3 [20]): > 3000 nM
Compound: CCn1c(=O)c2c(nc(/C=C/c3ccc(OC)c(OC)c3)n2C)n(CC)c1=O [ISTRADEFYLLINE]

- Ki (Adenosine receptor A1 [1]): 40 nM
Compound: Cc1cc(C)n(-c2cc(NC(=O)COc3cccc(CN(C)C)c3)nc(-c3ccc(C)o3)n2)n1
- ED50 (Rattus norvegicus [21]): 10 mg/kg

- Ratio Ki (Homo sapiens): 669
- Ki (Adenosine receptor A1 [1]): 602 nM
Compound: COCCOc1ccc(N2CCN(CCn3cnc4c3nc(N)n3nc(-c5ccco5)nc43)CC2)cc1
- inhibition in vivo at 1 mg/kg (Rattus norvegicus [5]): 55%
- inhibition in vivo at 1 mg/kg (Rattus norvegicus [22]): 50%
